According to patent US10130615B2, “Benzomorphan analogs and the use thereof” (priority 2014, dated 2018):
Like-named read-outs stand apart in the source and are kept apart here.

Assays:
μ-opioid receptor [1] = target: T1, μ-opioid receptor (Homo sapiens, UniProt P35372); experiment: biochemical; set-up: purchased Perkin Elmer, Shelton, Conn; host or cells: HEK-293 or CHO; conditions: HEK-293 or CHO cells; for EC50: read-out: GTPγS μ EC50; for Emax: relative to DAMGO, read-out: GTPγS μ Emax
ORL-1 receptor = target: T2, ORL-1 receptor (Homo sapiens, UniProt P41146); experiment: ORL-1 receptor radioligand binding assay ([3H]-nociceptin); conditions: HEK-293 or CHO cells; read-out: Ki (nM) Opioid Receptor ORL-1
T2 construct: host or cells: HEK-293
Description: ORL-1 Receptor Binding Assay Procedure: Membranes from recombinant HEK-293 cells expressing the human opioid receptor-like receptor (ORL-1) (Perkin Elmer, Shelton, Conn.) were prepared by lysing cells in ice-cold hypotonic buffer (2.5 mM MgCl2, 50 mM HEPES, pH 7.4) (10 ml/10 cm dish) followed by homogenization with a tissue grinder/Teflon pestle. Membranes were collected by centrifugation at 30,000×g for 15 min at 4° C. and pellets resuspended in hypotonic buffer to a final concentration of 1-3 mg/ml. Protein concentrations were determined using the BioRad protein assay reagent with bovine serum albumen as standard. Aliquots of the ORL-1 receptor membranes were stored at −80° C.
Radioligand binding assays (screening and dose-displacement) used 0.1 nM [^3H]-nociceptin (Perkin Elmer, Shelton, Conn.; 87.7 Ci/mmole) with 12 μg membrane protein in a final volume of 500 μl binding buffer (10 mM MgCl2, 1 mM EDTA, 5% DMSO, 50 mM HEPES, pH 7.4). Non-specific binding was determined in the presence of […] unlabeled nociceptin (American Peptide Company). All reactions were performed in 96-deep well polypropylene plates for 1 h at room temperature. […] The data from screening and dose-displacement experiments were analyzed using Microsoft Excel and the curve fitting functions in GraphPad PRISM™, v. 3.0 or higher, respectively, or an in-house function for one-site competition curve-fitting.

μ-opioid receptor [2] = target: T1, μ-opioid receptor; experiment: cell-based; set-up: purchased Perkin Elmer, Shelton, Conn; conditions: U2OS cells; for EC50: read-out: β-Arr2 μ EC50; for Emax: read-out: β-Arr2 μ Emax
μ-opioid receptor [3] = target: T1, μ-opioid receptor; experiment: μ-opioid receptor GTPγS functional assay, U2OS cells; conditions: for Emax: read-out: GTPγS μ Emax
μ-opioid receptor [4] = target: T1, μ-opioid receptor; experiment: μ-opioid receptor radioligand binding assay ([3H]-diprenorphine); set-up: purchased Perkin Elmer, Shelton, Conn; host or cells: HEK-293 or CHO
Description: μ-opioid Receptor Binding Assay Procedures: Radioligand dose-displacement binding assays for μ-opioid receptors used 0.3 nM [^3H]-diprenorphine (Perkin Elmer, Shelton, Conn.), with […] membrane protein/well in a final volume of 500 μl binding buffer (10 mM MgCl2, 1 mM EDTA, 5% DMSO, 50 mM HEPES, pH 7.4). Reactions were carried out in the absence or presence of increasing concentrations of unlabeled naloxone. All reactions were conducted in 96-deep well polypropylene plates for 2 hr at room temperature. […] The data were analyzed using the one-site competition curve fitting functions in GraphPad PRISM™ v. 3.0 or higher (San Diego, Calif.), or an in-house function for one-site competition curve-fitting.

κ-opioid receptor [5] = target: T3, κ-opioid receptor (Homo sapiens, UniProt P41145); experiment: κ-opioid receptor β-Arr2 activity response, U2OS cells; format: cell-based; set-up: expressed in transfected cells; host or cells: U-2 OS
κ-opioid receptor [6] = target: T3, κ-opioid receptor; experiment: κ-opioid receptor [35S]GTPγS functional assay, HEK-293 or CHO cells; format: biochemical; set-up: expressed in transfected cells; host or cells: HEK-293; conditions: for Emax: relative to U69,593
Description: (§1) Plates were incubated for 30 min at a temperature of about 25° C. with shaking.

κ-opioid receptor [7] = target: T3, κ-opioid receptor; experiment: κ-opioid receptor GTPγS functional assay, U2OS cells; format: biochemical; set-up: expressed in transfected cells; host or cells: U-2 OS
Description: as §1

κ-opioid receptor [8] = target: T3, κ-opioid receptor; experiment: κ-opioid receptor radioligand binding assay ([3H]-U69,593); set-up: expressed in transfected cells; host or cells: HEK-293
[9] = HEK-293 or CHO cells, read-out: Ki (nM) Opioid Receptor μ
[10] = U2OS cells, read-out: β-Arr2 κ EC50
[11] = HEK-293 or CHO cells, read-out: GTPγS κ EC50
[12] = U2OS cells, read-out: GTPγS κ EC50
[13] = HEK-293 or CHO cells, read-out: Ki (nM) Opioid Receptor κ

T1 sequence (P35372 whole entry, species assumed): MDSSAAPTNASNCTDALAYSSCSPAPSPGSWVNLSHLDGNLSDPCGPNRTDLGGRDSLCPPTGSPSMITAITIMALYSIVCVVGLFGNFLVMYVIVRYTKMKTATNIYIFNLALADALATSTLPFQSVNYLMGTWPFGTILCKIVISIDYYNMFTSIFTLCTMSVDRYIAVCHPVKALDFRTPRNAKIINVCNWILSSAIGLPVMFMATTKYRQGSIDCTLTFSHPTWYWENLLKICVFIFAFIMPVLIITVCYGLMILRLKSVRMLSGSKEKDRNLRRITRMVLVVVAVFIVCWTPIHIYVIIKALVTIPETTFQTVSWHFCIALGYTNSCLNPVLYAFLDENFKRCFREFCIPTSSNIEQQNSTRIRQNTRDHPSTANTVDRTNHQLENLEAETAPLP
T3 sequence (P41145 whole entry): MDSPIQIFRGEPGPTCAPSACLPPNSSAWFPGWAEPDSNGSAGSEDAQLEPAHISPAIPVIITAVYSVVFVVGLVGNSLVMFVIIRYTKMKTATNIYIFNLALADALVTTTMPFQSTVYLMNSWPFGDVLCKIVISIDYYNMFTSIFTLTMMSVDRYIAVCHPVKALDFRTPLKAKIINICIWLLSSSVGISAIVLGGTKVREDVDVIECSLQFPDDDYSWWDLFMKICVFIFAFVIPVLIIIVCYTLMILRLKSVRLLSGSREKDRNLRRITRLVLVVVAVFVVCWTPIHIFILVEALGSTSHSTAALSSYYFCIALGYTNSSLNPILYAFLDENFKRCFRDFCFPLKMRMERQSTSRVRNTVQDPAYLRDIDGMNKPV
T2 sequence (P41146 whole entry): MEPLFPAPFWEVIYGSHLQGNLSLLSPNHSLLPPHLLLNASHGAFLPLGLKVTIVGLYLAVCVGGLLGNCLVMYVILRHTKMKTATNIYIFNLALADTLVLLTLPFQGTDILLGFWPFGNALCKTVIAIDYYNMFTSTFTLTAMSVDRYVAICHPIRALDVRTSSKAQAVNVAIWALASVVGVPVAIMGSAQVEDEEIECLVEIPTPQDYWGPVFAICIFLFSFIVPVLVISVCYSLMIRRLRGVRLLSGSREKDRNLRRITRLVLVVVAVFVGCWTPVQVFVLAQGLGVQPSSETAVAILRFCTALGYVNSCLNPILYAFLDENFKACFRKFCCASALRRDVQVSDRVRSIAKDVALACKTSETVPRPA

SMILES	EC50 (μ-opioid receptor [1])	Emax (μ-opioid receptor [1])	Ki (ORL-1 receptor)	EC50 (μ-opioid receptor [2])	Emax (μ-opioid receptor [2])	EC50 (μ-opioid receptor [3])	Emax (μ-opioid receptor [3])	Ki (μ-opioid receptor [4]; [9])	Emax (κ-opioid receptor [5]; U2OS cells)	EC50 (κ-opioid receptor [5]; [10])	EC50 (κ-opioid receptor [6]; [11])	Emax (κ-opioid receptor [6]; HEK-293 or CHO cells)	Emax (κ-opioid receptor [7]; U2OS cells)	EC50 (κ-opioid receptor [7]; [12])	Ki (κ-opioid receptor [8]; [13])	Ki (μ-opioid receptor [4])	EC50 (κ-opioid receptor [5])	EC50 (κ-opioid receptor [6])	EC50 (κ-opioid receptor [7])	Ki (κ-opioid receptor [8])
C[C@H]1[C@H]2Cc3ccc(O)cc3C1(CCN[C@H]1C[C@H]3CCC[C@@H](C1)N3[C@@H]1C[C@@H]3CCCC[C@@H](C3)C1)CCN2C [Compound 63, (2R,6R,11R)-6-(2-(((1R,3R,5S)-9-((1R,6S,8r)-bicyclo[4.3.1]decan-8-yl)-9-azabicyclo[3.3.1]nonan-3-yl)amino)-ethyl)-3,11-dimethyl-1,2,3,4,5,6-hexahydro-2,6-methanobenzo[d]azocin-8-ol]	2.43 ± 0.67 nM	74.7 ± 2.4%	125 ± 24.2 nM	1.23 ± 0.31 nM	21.8 ± 1.31%															
C[C@H]1[C@H]2Cc3ccc(O)cc3C1(CCN[C@H]1C[C@H]3CCC[C@@H](C1)N3CC[C@@H]1CC[C@H]3C[C@@H]1C3(C)C)CCN2C [Compound 64, (2R,6R,11R)-6-(2-(((1R,3S,5S)-9-(2-((1S,2S,5S)-6,6-dimethylbicyclo-[3.1.1]heptan-2-yl)ethyl)-9-azabicyclo-[3.3.1]nonan-3-yl)amino)ethyl)-3,11-dimethyl-1,2,3,4,5,6-hexahydro-2,6-methanobenzo[d]azocin-8-ol]	19.6 ± 5.19 nM	43.5 ± 2.96%	563 ± 97.5 nM	7450 ± 929 nM	51.8 ± 7.76%															
COc1ccc2c(c1)[C@]1(CCOCc3ccccc3)CCN(CC3CC3)[C@H](C2)[C@@H]1C [Compound 45, (2R,6S,11R)-6-(2-(benzyloxy)ethyl)-3-(cyclopropylmethyl)-8-methoxy-11-methyl-1,2,3,4,5,6-hexahydro-2,6-methanobenzo[d]azocine]	267 ± 20.1 nM	16.3 ± 0.88%			1.33 ± 0.33%	38 ± 2.09 nM	103 ± 6.47%	543 ± 116 nM	84 ± 2.08%	26.7 ± 8.55 nM	16.3 ± 0.74 nM	104 ± 5.03%	96.3 ± 5.17%	0.95 ± 0.14 nM	0.16 ± 0.03 nM					
C[C@H]1[C@H]2Cc3ccc(O)cc3[C@]1(CCCCN[C@@H](CCCCN)C(=O)O)CCN2CC1CC1 [Compound 25, (4-((2R,6R,11R)-3-(cyclopropyl-methyl)-8-hydroxy-11-methyl-2,3,4,5-tetrahydro-2,6-methanobenzo[d]azocin-6(1H)-yl)butyl)-L-lysine]		1%			-1.4%	1.29 ± 0.11 nM	48.3 ± 0.67%	3.58 ± 1.45 nM	50 ± 0.58%	0.1 ± 0.019 nM	2.33 ± 0.51 nM	104 ± 5.03%	99 ± 4.58%	0.17 ± 0.038 nM	0.077 ± 0.014 nM					
COc1ccc2c(c1)[C@]1(CCO)CCN(CC3CC3)[C@H](C2)[C@@H]1C [Compound 43, 2-((2R,6S,11R)-3-(cyclopropylmethyl)-8-methoxy-11-methyl-2,3,4,5-tetrahydro-2,6-methanobenzo[d]azocin-6(1H)-yl)ethan-1-ol]	1150 ± 199 nM	22 ± 1.58%			-1%	99 ± 5.84 nM	107 ± 5.83%		59.3 ± 3.18%			97.7 ± 5.36%	102 ± 3.71%			233 ± 46.9 nM	494 ± 140 nM	355 ± 63.6 nM	17.8 ± 1.45 nM	3.63 ± 0.7 nM
COC(=O)[C@H](CCCCN)NCCCC[C@]12CCN(CC3CC3)[C@H](Cc3ccc(O)cc31)[C@@H]2C [Compound 26, methyl (4-((2R,6R,11R)-3-(cyclopropyl-methyl)-8-hydroxy-11-methyl-2,3,4,5-tetrahydro-2,6-methanobenzo[d]azocin-6(1H)-yl)butyl)-L-lysinate]		0.33 ± 0.67%			0%	0.51 ± 0.054 nM	40 ± 1.73%	0.73 ± 0.1 nM	17.5 ± 2.72%	0.081 ± 0.019 nM	0.19 ± 0.058 nM	51 ± 2.04%	102 ± 3.48%	0.14 nM	0.053 nM					
C[C@H]1[C@H]2Cc3ccc(O)cc3[C@]1(CCNC(=O)c1ccc(C(=O)O)cc1)CCN2CC1CC1 [Compound 32, 4-((2-((2R,6R,11R)-3-(cyclopropyl-methyl)-8-hydroxy-11-methyl-2,3,4,5-tetrahydro-2,6-methanobenzo[d]azocin-6(1H)-yl)ethyl)carbamoyl)benzoic acid]		-1%			-1%	2.16 ± 0.38 nM	57.3 ± 5.04%	5.62 ± 1.41 nM	11.3 ± 1.2%	26.7 ± 10.5 nM	144 ± 25.4 nM	91.3 ± 9.94%	97.7 ± 4.67%	35.7 ± 5.29 nM	35 ± 5.97 nM					
COC(=O)c1ccc(CC(=O)NCC[C@]23CCN(CC4CC4)[C@H](Cc4ccc(OC)cc42)[C@@H]3C)cc1 [Compound 30, methyl 4-(2-((2-((2R,6R,11R)-3-(cyclopropylmethyl)-8-methoxy-11-methyl-2,3,4,5-tetrahydro-2,6-methano-benzo[d]azocin-6(1H)-yl)ethyl)amino)-2-oxoethyl)benzoate]		0%			1 ± 0.5%	230 ± 27.5 nM	51 ± 3.51%	389 ± 124 nM	-1%		259 ± 33.1 nM	83 ± 7.77%	104 ± 2.96%	13.1 ± 1.48 nM	6.18 ± 1.72 nM					
C[C@H]1[C@H]2Cc3ccc(O)cc3[C@]1(CCCCN[C@@H](Cc1ccccc1)C(N)=O)CCN2CC1CC1 [Compound 23, (S)-2-((4-((2R,6R,11R)-3-(cyclopropyl-methyl)-8-hydroxy-11-methyl-2,3,4,5-tetrahydro-2,6-methanobenzo[d]azocin-6(1H)-yl)butyl)amino)-3-phenyl-propanamide]		1%			-1.5%	0.28 ± 0.073 nM	56 ± 3.06%	0.2 ± 0.012 nM	30 ± 0.58%	0.16 ± 0.055 nM	1.49 ± 0.58 nM	99 ± 6.35%	104 ± 4.06%	0.079 ± 0.01 nM	0.048 ± 0.01 nM					
